Experimental data published in the supplement of paper PMC8967900.

Legend:
Assay in all cases: selective drug sensitivity score (sDSS, relative to normal bone marrow) (sDSS (score)); higher = more potent and effective on the cell line relative to normal bone marrow cells
Settings in all cases: 72 h
MHH-CALL-2 = tested on: MHH-CALL-2
CCRF-HSB2 = tested on: CCRF-HSB2
SEM cells = tested on: SEM cells
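Note: ALL cell lines in 384-well plates, five doses spanning 10,000-fold, each plate scaled between vehicle and 100 µmol/L benzalkonium chloride controls, sDSS an adapted area-under-curve metric.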

Nc1nc(F)nc2c1ncn2[C@@H]1O[C@H](CO)[C@@H](O)[C@@H]1O [Fludarabine] (top concentration 10000 nM)
selective drug sensitivity score (MHH-CALL-2): 8 | selective drug sensitivity score (CCRF-HSB2): 1.5 | selective drug sensitivity score (SEM cells): 4

COc1cc([C@@H]2c3cc4c(cc3[C@@H](O[C@@H]3O[C@@H]5CO[C@@H](c6cccs6)O[C@H]5[C@H](O)[C@H]3O)[C@H]3COC(=O)[C@H]23)OCO4)cc(OC)c1O [Teniposide] (top concentration 10000 nM)
selective drug sensitivity score (MHH-CALL-2): 0 | selective drug sensitivity score (CCRF-HSB2): 0 | selective drug sensitivity score (SEM cells): 0

CC(C)(C#N)c1cc(Cn2cncn2)cc(C(C)(C)C#N)c1 [Anastrozole] (top concentration 10000 nM)
selective drug sensitivity score (MHH-CALL-2): 0 | selective drug sensitivity score (CCRF-HSB2): 0 | selective drug sensitivity score (SEM cells): 0

O[C@H]1CC[C@H](Nc2ncc3nc(Nc4c(F)cc(F)cc4F)n([C@H]4CCOC4)c3n2)CC1 [Tanzisertib] (top concentration 10000 nM)
selective drug sensitivity score (MHH-CALL-2): 0.9 | selective drug sensitivity score (CCRF-HSB2): 0.2 | selective drug sensitivity score (SEM cells): 0

CS(=O)(=O)N1CCN(Cc2cc3nc(-c4cccc5[nH]ncc45)nc(N4CCOCC4)c3s2)CC1 [Pictilisib] (top concentration 10000 nM)
selective drug sensitivity score (MHH-CALL-2): 12.3 | selective drug sensitivity score (CCRF-HSB2): 4.56 | selective drug sensitivity score (SEM cells): 9.66

Nc1nc(OCc2cc(Br)cs2)c2[nH]cnc2n1 [Lomeguatrib] (top concentration 10000 nM)
selective drug sensitivity score (MHH-CALL-2): 0 | selective drug sensitivity score (CCRF-HSB2): 0 | selective drug sensitivity score (SEM cells): 0

CNC(=O)CN1CCC(Oc2cc3c(Nc4cccc(Cl)c4F)ncnc3cc2OC)CC1 [Sapitinib] (top concentration 1000 nM)
selective drug sensitivity score (MHH-CALL-2): 0 | selective drug sensitivity score (CCRF-HSB2): 3.3 | selective drug sensitivity score (SEM cells): 0

CCc1c2c(nc3ccc(O)cc13)-c1cc3c(c(=O)n1C2)COC(=O)[C@]3(O)CC [SN-38] (top concentration 10000 nM)
selective drug sensitivity score (MHH-CALL-2): 25.2 | selective drug sensitivity score (CCRF-HSB2): 28 | selective drug sensitivity score (SEM cells): 25.4

Nc1ccn([C@@H]2O[C@H](CO)[C@@H](O)[C@@H]2O)c(=O)n1 [Cytarabine] (top concentration 10000 nM)
selective drug sensitivity score (MHH-CALL-2): 19.6 | selective drug sensitivity score (CCRF-HSB2): 28.7 | selective drug sensitivity score (SEM cells): 15.9

Cc1cc(OCc2nnc(SC3CCCC3)n2-c2cccnc2)ccc1-c1ccc(S(C)(=O)=O)cc1 [NMS-873] (top concentration 10000 nM)
selective drug sensitivity score (MHH-CALL-2): 6.76 | selective drug sensitivity score (CCRF-HSB2): 10.5 | selective drug sensitivity score (SEM cells): 5.06

CCOC(=O)C1=CCCC[C@H]1S(=O)(=O)Nc1ccc(F)cc1Cl [Resatorvid] (top concentration 10000 nM)
selective drug sensitivity score (MHH-CALL-2): 0 | selective drug sensitivity score (CCRF-HSB2): 0 | selective drug sensitivity score (SEM cells): 0

O=C(c1cc(Cc2n[nH]c(=O)c3ccccc23)ccc1F)N1CCN(C(=O)C2CC2)CC1 [Olaparib] (top concentration 10000 nM)
selective drug sensitivity score (MHH-CALL-2): 8.88 | selective drug sensitivity score (CCRF-HSB2): 3.98 | selective drug sensitivity score (SEM cells): 5.18

CCn1c(-c2nonc2N)nc2cnc(Oc3cccc(NC(=O)c4ccc(OCCN5CCOCC5)cc4)c3)cc21 (top concentration 10000 nM)
selective drug sensitivity score (MHH-CALL-2): 8.36 | selective drug sensitivity score (CCRF-HSB2): 13.6 | selective drug sensitivity score (SEM cells): 9.36

CCN(CC)C(=S)SSC(=S)N(CC)CC [Disulfiram(+CuCl2)] (top concentration 50000 nM)
selective drug sensitivity score (MHH-CALL-2): 8.58 | selective drug sensitivity score (CCRF-HSB2): -2.12 | selective drug sensitivity score (SEM cells): -2.12

Oc1nc(-c2ccc(C(F)(F)F)cc2)nc2c1CSCC2 [XAV939] (top concentration 10000 nM)
selective drug sensitivity score (MHH-CALL-2): 0.26 | selective drug sensitivity score (CCRF-HSB2): 0.36 | selective drug sensitivity score (SEM cells): 0.56

CO[C@H]1C[C@@H]2CC[C@@H](C)[C@@](O)(O2)C(=O)C(=O)N2CCCC[C@H]2C(=O)O[C@H]([C@H](C)C[C@@H]2CC[C@@H](OC(=O)C(C)(CO)CO)[C@H](OC)C2)CC(=O)[C@H](C)/C=C(\C)[C@@H](O)[C@@H](OC)C(=O)[C@H](C)C[C@H](C)/C=C/C=C/C=C/1C [Temsirolimus] (top concentration 100 nM)
selective drug sensitivity score (MHH-CALL-2): -0.34 | selective drug sensitivity score (CCRF-HSB2): 7.76 | selective drug sensitivity score (SEM cells): 1.36

COC(=O)c1ccc2c(c1)NC(=O)/C2=C(\Nc1ccc(N(C)C(=O)CN2CCN(C)CC2)cc1)c1ccccc1 [Nintedanib] (top concentration 10000 nM)
selective drug sensitivity score (MHH-CALL-2): 1.04 | selective drug sensitivity score (CCRF-HSB2): 28.6 | selective drug sensitivity score (SEM cells): 16

COc1cccc2c1C(=O)c1c(O)c3c(c(O)c1C2=O)C[C@@](O)(C(C)=O)C[C@@H]3O[C@H]1C[C@H](N)[C@H](O)[C@H](C)O1 [Daunorubicin] (top concentration 1000 nM)
selective drug sensitivity score (MHH-CALL-2): 6.16 | selective drug sensitivity score (CCRF-HSB2): 12.5 | selective drug sensitivity score (SEM cells): 6.06

CO[C@H]1C[C@@H]2CC[C@@H](C)[C@@](O)(O2)C(=O)C(=O)N2CCCC[C@H]2C(=O)O[C@H]([C@H](C)C[C@@H]2CC[C@@H](OP(C)(C)=O)[C@H](OC)C2)CC(=O)[C@H](C)/C=C(\C)[C@@H](O)[C@@H](OC)C(=O)[C@H](C)C[C@H](C)/C=C/C=C/C=C/1C [Ridaforolimus] (top concentration 100 nM)
selective drug sensitivity score (MHH-CALL-2): -2.24 | selective drug sensitivity score (CCRF-HSB2): 7.46 | selective drug sensitivity score (SEM cells): 5.66

CC[C@@H](C(=O)[C@@H](C)[C@@H](O)[C@H](C)[C@@H]1O[C@@H]([C@@H](CC)C(=O)O)CC[C@@H]1C)[C@H]1O[C@]2(C=C[C@@H](O)[C@]3(CC[C@@](C)([C@H]4CC[C@](O)(CC)[C@H](C)O4)O3)O2)[C@H](C)C[C@@H]1C [Salinomycin] (top concentration 50000 nM)
selective drug sensitivity score (MHH-CALL-2): 10.8 | selective drug sensitivity score (CCRF-HSB2): 0.9 | selective drug sensitivity score (SEM cells): -5.8

CC(C)Oc1ccc(C(=O)N[C@H](CNC(=O)CN(C)C)Cc2ccc(-c3cn4cccc([C@H](C)O)c4n3)cc2)cc1Cl (top concentration 10000 nM)
selective drug sensitivity score (MHH-CALL-2): 8.58 | selective drug sensitivity score (CCRF-HSB2): 11 | selective drug sensitivity score (SEM cells): 8.88

Nc1ncn([C@H]2C[C@H](O)[C@@H](CO)O2)c(=O)n1 [Decitabine] (top concentration 10000 nM)
selective drug sensitivity score (MHH-CALL-2): 1.04 | selective drug sensitivity score (CCRF-HSB2): 1.14 | selective drug sensitivity score (SEM cells): 1.74

Cc1sc2c(c1C)C(c1ccc(Cl)cc1)=N[C@@H](CC(=O)Nc1ccc(O)cc1)c1nnc(C)n1-2 [Birabresib] (top concentration 10000 nM)
selective drug sensitivity score (MHH-CALL-2): 7.02 | selective drug sensitivity score (CCRF-HSB2): -0.98 | selective drug sensitivity score (SEM cells): 11.6

O=C(O)C(=O)O.[NH-][C@@H]1CCCC[C@H]1[NH-].[Pt+2] [Oxaliplatin] (top concentration 100000 nM)
selective drug sensitivity score (MHH-CALL-2): 13.9 | selective drug sensitivity score (CCRF-HSB2): 15 | selective drug sensitivity score (SEM cells): 8.52
